Results as given in patent publication US10800806B2, “Sterol derivatives and use thereof for treating diseases involving transformed astrocyte cells or for treating malignant haemopathies” (BETA INNOV, priority 2012, dated 2020).
“Also recorded” adds a separate entry of the source.

Assays:
[1] = tested on: prostate cancer cells (ATCC-HTB-81); assay: Activity in vitro on prostate cancer cells; format: cell-based, human; conditions: 30 μM, ethanolic form
Experimental: They were obtained from ATCC (ref. ATCC-HTB-81). The culture medium is the same as that used for the liver cancer lines. The doubling time is 60 h. • Breast cancer cells
(§1) The cancer cells used are from liver (ref. ATCC-HB-8065), prostate (ref. ATCC-HTB-81), breast (ref. ATCC-HTB-19) cancer cells, and from colon cancer cells (ECACC-HT29/219) of human origin, mentioned above.

[2] = tested on: colon cancer cells (ECACC-HT29/219); assay: Activity in vitro on colon cancer cells; format: cell-based, human; conditions: 15 μM, improved liposomal form
From the text: They were obtained from the ECACC collection (Ref. ECACC-85061109). The culture conditions are based on the recommendations in the Sigma-Aldrich information leaflet. • Neuroblastoma (line SH-SY5Y)
as §1

[3] = tested on: CD133+ stem cells (U87-MG cultures); assay: Immunolabelling of the CD133+ stem cells with the A/B peroxidase system; format: cell-based, human; conditions: for CD133+ cells, percentage relative to the controls: 30 μM in ethanolic form
Experimental: The anti-CD133 (poly, Abnova), anti-GFAP (poly, Sigma), anti-NFL (mono, Santa Cruz) and anti-fibroblast (ERTR7, Santa Cruz) primary antibodies are diluted to 1/100 in the case of the first three antibodies and to 1/50 in the case of the last.
The secondary antibodies corresponding to recognition of the primary antibodies are anti-rabbit antibodies coupled to peroxidase (goat, Sigma), anti-mouse coupled to Dylight 488 (sheep, Sigma), anti-mouse coupled to Dylight 488 (sheep, Sigma) and anti-rat coupled to FITC (rabbit, Sigma). The dilutions are 1/4000, 1/1000, 1/4000 and 1/400 respectively.
The cells are permeabilized for 5 min with 0.1% Triton X-100 (Sigma) in PBS (Fisher Scientific). The nonspecific sites are blocked with 2% BSA (Sigma) in PBS. Incubations are carried out for 1 h at ambient temperature, 48 h at 4° C., 24 h at 4° C. and 1 h at ambient temperature for the anti-CD133, anti-GFAP, anti-NFL and anti-Fibroblast antibodies respectively. Incubation with the secondary antibodies is carried out for 1 h at ambient temperature. The CD133 positive cells are detected by the DAB/H2O2 system (Sigma), and observed with an optical microscope.
The immunolabelling is carried out as described above (section II, A).

[4] = tested on: breast cancer cells (ATCC-HTB-19); assay: Activity in vitro on breast cancer cells; format: cell-based, human; conditions: 30 μM, ethanolic form
Experimental: They were obtained from ATCC (ref. ATCC-HTB-19). The culture medium is the same as that used for the liver cancer lines. The doubling time is 20 h. • Colon carcinoma (line HT29/219)
as §1

[5] = tested on: white blood cells from a patient suffering from CMML; assay: Activity in vitro on Chronic Myelomonocytic Leukaemia (CMML) cells; format: cell-based, human; conditions: 10 μM once, improved liposomal form, 72 h of treatment
Experimental: The cells purified from blood samples of patients suffering from Chronic Myelomonocytic Leukaemia (CMML) were obtained by the Clinical Haematology Centre and the Biotherapy Centre of the Saint Eloi Hospital (CHU de Montpellier). Culture was carried out by the technique of seeding on a feed layer. […] The CMML cells were cultured on cell lines originating from human embryo spinal cord (17).
The white blood cells are isolated from a blood sample collected from a patient suffering from CMML. The cells are treated once with 10 μM of molecule 2.b in improved liposomal form 24 hours after culturing by seeding on a feed layer (17).
The controls are cells treated with empty liposomes: the upper left hand photograph marked with the letter A was taken after 48 h of treatment and the lower left hand photograph with the letter B after 72 h of treatment.
For the cells treated with 2.b, the upper right hand photograph marked with the letter C was taken after 48 h of treatment and the lower right hand photograph with the letter D after 72 h of treatment.

[6] = tested on: Neuroblastoma (line SH-SY5Y, ATCC-CRL-2266); assay: Activity in vitro on human neuroblastomas; format: cell-based; conditions: 22 μM once, concentrated liposomal form, 7 days of treatment
Experimental: They were obtained from the ATCC collection (Ref. ATCC-CRL-2266). The culture conditions are based on the recommendations in the ATCC information leaflet. • Chronic Myelomonocytic Leukaemia (CMML)
The neuroblastomas were treated with empty liposomes (controls) or with liposomes containing molecule 1.b or 2.b, 24 h after starting the culture. The cells are treated once with 22 μM of molecule 1.b or 22 μM of molecule 2.b. The liposomal form is concentrated.
For the control cells, the upper left hand photograph marked with the letter A was taken after 7 days of treatment; the lower left hand photograph marked with the letter B was taken after 28 days of treatment.
For the cells treated with the concentrated liposomal molecule 1.b, the photograph marked with the letter C (in the middle, at the top) was taken after 7 days of treatment and the photograph marked with the letter D (in the middle, at the bottom) after 28 days of treatment. For the cells treated with the concentrated liposomal molecule 2.b, the upper right hand photograph marked with the letter E was taken after 7 days of treatment.

## CC(=O)OC1C=C2CC(OC(=O)C3COC(C)(C)O3)CCC2(C)C2CCC3(C)C(C(C)CCCC(C)C)CCC3C12 (stereo not drawn) [Molecule 2.b, 7-acetoxy-10,13-dimethyl-17-(6-methylheptan-2-yl)-2,3,4,7,8,9,10,11,12,13,14,15,16,17-tetradecahydro-1H-cyclopenta[a]phenanthren-3-yl 2,2-dimethyl-1,3-dioxolane-4-carboxylate]
[1]
  effect on cellular division and respiration: no effect
[2]
  toxicity to colon cancer cells: not toxic
[3]; 4 days of treatment
  CD133+ cells, percentage relative to the controls: 100%
[3]; 22 days of treatment
  CD133+ cells, percentage relative to the controls: 0%
[3]; ethanolic form, 22 days of treatment
  destruction of the CD133+ stem cells: completely destroyed; also recorded: completely destroys the stem cells
[3]; medium replaced at 22 days
  appearance of CD133+ stem cells after replacing the culture medium with fresh drug-free medium: does not lead to the appearance of CD133+ stem cells
[4]
  effect on cellular division and respiration: no effect
[5]
  effect on cell multiplication relative to the control: Cell multiplication is slowed considerably
[6]
  toxicity to neuroblastoma cells compared to the control cells: no viable cell is observed
